# Measurements taken from publication PMC2990605 (British Journal of Cancer, 2010).
# Assay: Adverse events (CTCAEv3.0), worst grade per patient regardless of relation, and laboratory parameters
# Type: in vivo
# Settings: human, in vivo
# Experimental: Toxicity was evaluated according to common toxicity criteria for adverse events (CTCAEv3.0). The MTD was defined as the dose level(s) at which at least two out of six patients developed DLT.
# Toxicity assessment, haematology and clinical biochemistry were performed at baseline and weekly during the study. Physical and ECOG performance status were recorded at baseline and before the next cycle.
smiles,measurement,setting,value
CC(C)C[C@@H](C(=O)N[C@H](C(=O)OC1CCCC1)c1ccccc1)[C@H](O)C(=O)NO [tosedostat],"Pollakiuria, patients with events, %",,5%
same,"Pruritus, CTCAE grade 1, patients",,5
same,"Pruritus, CTCAE grade 2, patients",,0
same,"Pruritus, CTCAE grade 3, patients",,1
same,"Pruritus, CTCAE grade 4, patients",,0
same,"Pruritus, patients with events, %",,27%
same,"Pulmonary embolism, CTCAE grade 1, patients",,0
same,"Pulmonary embolism, CTCAE grade 2, patients",,0
same,"Pulmonary embolism, CTCAE grade 4, patients",,0
same,"Pyrexia, CTCAE grade 1, patients",,4
same,"Pyrexia, CTCAE grade 2, patients",,2
same,"Pyrexia, CTCAE grade 3, patients",,0
same,"Pyrexia, CTCAE grade 4, patients",,0
same,"Pyrexia, patients with events, %",,27%
same,"Rash, CTCAE grade 1, patients",,9
same,"Rash, CTCAE grade 2, patients",,1
same,"Rash, CTCAE grade 3, patients",,2
same,"Rash, CTCAE grade 4, patients",,0
same,"Rash, patients with events, %",,55%
same,"Renal and urinary disorders, patients with events, %",,23%
same,"Respiratory, thoracic and mediastinal disorders, patients with events, %",,73%
same,SAEs considered disease-related,,13
same,"SAEs reported, total number",,19
same,"Skin and subcutaneous tissue disorders, patients with events, %",,100%
same,"Spinal cord compression, CTCAE grade 1, patients",,0
same,"Spinal cord compression, CTCAE grade 2, patients",,0
same,"Spinal cord compression, CTCAE grade 3, patients",,1
same,"Spinal cord compression, CTCAE grade 4, patients",,0
same,"Spinal cord compression, patients with events, %",,5%
same,"Tumour pain, CTCAE grade 1, patients",,0
same,"Tumour pain, CTCAE grade 2, patients",,1
same,"Tumour pain, CTCAE grade 3, patients",,2
same,"Tumour pain, CTCAE grade 4, patients",,0
same,"Tumour pain, patients with events, %",,14%
same,"Urinary tract infection, CTCAE grade 1, patients",,0
same,"Urinary tract infection, CTCAE grade 2, patients",,1
same,"Urinary tract infection, CTCAE grade 3, patients",,1
same,"Urinary tract infection, CTCAE grade 4, patients",,0
same,"Urinary tract infection, patients with events, %",,9%
same,"Vomiting, CTCAE grade 1, patients",,3
same,"Vomiting, CTCAE grade 2, patients",,2
same,"Vomiting, CTCAE grade 3, patients",,0
same,"Vomiting, CTCAE grade 4, patients",,0
same,"Vomiting, patients with events, %",,23%
same,drug-related adverse event: alopecia,,95%
same,drug-related adverse event: fatigue,,95%
same,drug-related adverse event: peripheral sensory neuropathy,,59%
same,drug-related adverse event: rash,,55%
same,"incidence and severity of neutropenia/leukopenia, anaemia, myalgia and nausea/vomiting",,not increased relative to paclitaxel alone
same,"nadir of median haemoglobin, WBC, neutrophils and lymphocytes in each cycle",,15 days
same,nadir of median platelets in each cycle,,8 days
same,patients with SAEs,,12
same,"γ-glutamyltransferase increased, CTCAE grade 1, patients",,0
same,"γ-glutamyltransferase increased, CTCAE grade 2, patients",,1
same,"γ-glutamyltransferase increased, CTCAE grade 3, patients",,1
same,"γ-glutamyltransferase increased, CTCAE grade 4, patients",,0
same,"γ-glutamyltransferase increased, patients with events, %",,9%
same,"Alanine aminotransferase increased, CTCAE grade 1, patients",21 days,1
same,"Alanine aminotransferase increased, CTCAE grade 2, patients",21 days,2
same,"Alanine aminotransferase increased, CTCAE grade 3, patients",21 days,0
same,"Alanine aminotransferase increased, CTCAE grade 4, patients",21 days,0
same,"Alanine aminotransferase increased, patients with events, %",21 days,14%
same,"Alopecia, CTCAE grade 2, patients",21 days,8
same,"Alopecia, CTCAE grade 3, patients",21 days,0
same,"Alopecia, CTCAE grade 4, patients",21 days,0
same,"Alopecia, patients with events, %",21 days,68%
same,"Anorexia, CTCAE grade 1, patients",21 days,4
same,"Anorexia, CTCAE grade 2, patients",21 days,0
same,"Anorexia, CTCAE grade 3, patients",21 days,0
same,"Anorexia, CTCAE grade 4, patients",21 days,0
same,"Anorexia, patients with events, %",21 days,18%
same,"Arthralgia, CTCAE grade 1, patients",21 days,5
same,"Arthralgia, CTCAE grade 2, patients",21 days,0
same,"Arthralgia, CTCAE grade 3, patients",21 days,0
same,"Arthralgia, CTCAE grade 4, patients",21 days,0
same,"Arthralgia, patients with events, %",21 days,23%
same,"Back pain, CTCAE grade 1, patients",21 days,2
same,"Back pain, CTCAE grade 2, patients",21 days,0
same,"Back pain, CTCAE grade 3, patients",21 days,0
same,"Back pain, CTCAE grade 4, patients",21 days,0
same,"Back pain, patients with events, %",21 days,9%
same,"Blood bilirubin, CTCAE grade 1, patients",21 days,0
same,"Blood bilirubin, CTCAE grade 2, patients",21 days,0
same,"Blood bilirubin, CTCAE grade 3, patients",21 days,0
same,"Blood bilirubin, CTCAE grade 4, patients",21 days,0
same,"Blood bilirubin, patients with events, %",21 days,0%
same,"Bronchitis, CTCAE grade 1, patients",21 days,0
same,"Bronchitis, CTCAE grade 2, patients",21 days,0
same,"Bronchitis, CTCAE grade 3, patients",21 days,0
same,"Bronchitis, CTCAE grade 4, patients",21 days,0
same,"Bronchitis, patients with events, %",21 days,0%
same,"Constipation, CTCAE grade 1, patients",21 days,3
same,"Constipation, CTCAE grade 2, patients",21 days,1
same,"Constipation, CTCAE grade 3, patients",21 days,0
same,"Constipation, CTCAE grade 4, patients",21 days,0
same,"Constipation, patients with events, %",21 days,18%
same,"Cough, CTCAE grade 1, patients",21 days,5
same,"Cough, CTCAE grade 2, patients",21 days,0
same,"Cough, CTCAE grade 3, patients",21 days,0
same,"Cough, CTCAE grade 4, patients",21 days,0
same,"Cough, patients with events, %",21 days,23%
same,"Cystitis, CTCAE grade 1, patients",21 days,0
same,"Cystitis, CTCAE grade 2, patients",21 days,0
same,"Cystitis, CTCAE grade 3, patients",21 days,0
same,"Cystitis, CTCAE grade 4, patients",21 days,0
same,"Cystitis, patients with events, %",21 days,0%
same,"Dehydration, CTCAE grade 1, patients",21 days,0
same,"Dehydration, CTCAE grade 2, patients",21 days,0
same,"Dehydration, CTCAE grade 3, patients",21 days,1
same,"Dehydration, CTCAE grade 4, patients",21 days,0
same,"Dehydration, patients with events, %",21 days,5%
same,"Diabetes mellitus, CTCAE grade 1, patients",21 days,0
same,"Diabetes mellitus, CTCAE grade 2, patients",21 days,0
same,"Diabetes mellitus, CTCAE grade 3, patients",21 days,1
same,"Diabetes mellitus, CTCAE grade 4, patients",21 days,0
same,"Diabetes mellitus, patients with events, %",21 days,5%
same,"Diarrhoea, CTCAE grade 1, patients",21 days,2
same,"Diarrhoea, CTCAE grade 2, patients",21 days,0
same,"Diarrhoea, CTCAE grade 3, patients",21 days,0
same,"Diarrhoea, CTCAE grade 4, patients",21 days,0
same,"Diarrhoea, patients with events, %",21 days,9%
same,"Dizziness, CTCAE grade 1, patients",21 days,4
same,"Dizziness, CTCAE grade 2, patients",21 days,1
same,"Dizziness, CTCAE grade 3, patients",21 days,0
same,"Dizziness, CTCAE grade 4, patients",21 days,0
same,"Dizziness, patients with events, %",21 days,23%
same,"Drug hypersensitivity, CTCAE grade 1, patients",21 days,0
same,"Drug hypersensitivity, CTCAE grade 2, patients",21 days,0
same,"Drug hypersensitivity, CTCAE grade 3, patients",21 days,0
same,"Drug hypersensitivity, CTCAE grade 4, patients",21 days,0
same,"Drug hypersensitivity, patients with events, %",21 days,0%
same,"Dry skin, CTCAE grade 1, patients",21 days,0
same,"Dry skin, CTCAE grade 2, patients",21 days,0
same,"Dry skin, CTCAE grade 3, patients",21 days,1
same,"Dry skin, CTCAE grade 4, patients",21 days,0
same,"Dry skin, patients with events, %",21 days,5%
